Test results as given in patent US20240158851A1, “METHOD FOR […] ADDICTION, METHOD FOR SCREENING THERAPEUTIC AGENT FOR DRUG ADDICTION AND PHARMACEUTICAL COMPOSITION FOR PREVENTING OR TREATING DRUG ADDICTION” (KOREA INSTITUTE OF SCIENCE AND TECHNOLOGY, priority 2020, published 2024).

Experiments:
[1] = test system: miR-137; assay: Serum miR-137 (qPCR) in drug-addicted (gradual ramp-up) animal model with striatal SYNCRIP overexpression; details: gradual ramp-up methamphetamine protocol, one week withdrawal; lentivirus into striatum 4 weeks before
[2] = test system: SYNCRIP; assay: SYNCRIP expression in brain striatum by Western blotting; details: drug addiction animal model (MA) vs control group
[3] = test system: hyperactivity; assay: Open field test of methamphetamine-induced hyperactivity; format: in vivo, mouse; details: open field 20 min after methamphetamine 4.0 mg/kg
Protocol: Before methamphetamine injection into each animal model, an open field test was conducted for 20 min to measure the activity of the animal model, which was used as a baseline.
4.0 mg/kg of methamphetamine was administered to the control group (Comparative group 1) and an open field test was again conducted for 20 min to measure the activity of the animal model.
4.0 mg/kg of methamphetamine was administered to the drug addiction animal model (MA) (Comparative group 2) and an open field test was again conducted for 20 min to measure the activity of the animal model.
Finally, the activity of each group was compared with the baseline and the activity increase was expressed as a percentage relative to the baseline.

[4] = test system: egocentric spatial learning; assay: Water cross maze test of egocentric spatial learning; details: probe test after 3 days learning; lentivirus injected into striatum after drug addiction
[5] = test system: miR-137; assay: miR-137 expression (qPCR) in striatum and serum of methamphetamine drug addiction animal model; details: drug addiction animal model (MA) vs control group, gradual ramp-up protocol, one week withdrawal
[6] = test system: SYNCRIP; assay: SYNCRIP expression in brain striatum by qPCR; details: drug addiction animal model (MA) vs control group
[7] = test system: miR-137; assay: Serum miR-137 (qPCR) in mild drug-addicted animal model with striatal SYNCRIP overexpression; details: mild drug addiction: methamphetamine 1.0 mg/kg i.p. once every other day for 2 weeks; lentivirus into striatum 4 weeks before

SMILES: CN[C@@H](C)Cc1ccccc1 [methamphetamine]
- expression level of miR-137 in serum [1]: significantly reduced
- expression level of SYNCRIP in brain striatum (Western blotting) [2]: decreased to a significantly lower level
- hyperactivity (activity increase relative to baseline) [3]: significantly increased
- egocentric spatial learning (percent of mice) [4]: abnormally enhanced
- expression level of miR-137 in serum ([5]; serum): significantly low
- expression level of miR-137 in striatum ([5]; striatum): significantly high
- expression level of SYNCRIP in brain striatum (qPCR) [6]: decreased but was significantly higher
- expression level of serum miR-137 [7]: significantly low
